The target of this assay is T1, Serine/threonine-protein kinase Sgk1 (Homo sapiens, UniProt O00141).
T1 sequence (O00141 whole entry): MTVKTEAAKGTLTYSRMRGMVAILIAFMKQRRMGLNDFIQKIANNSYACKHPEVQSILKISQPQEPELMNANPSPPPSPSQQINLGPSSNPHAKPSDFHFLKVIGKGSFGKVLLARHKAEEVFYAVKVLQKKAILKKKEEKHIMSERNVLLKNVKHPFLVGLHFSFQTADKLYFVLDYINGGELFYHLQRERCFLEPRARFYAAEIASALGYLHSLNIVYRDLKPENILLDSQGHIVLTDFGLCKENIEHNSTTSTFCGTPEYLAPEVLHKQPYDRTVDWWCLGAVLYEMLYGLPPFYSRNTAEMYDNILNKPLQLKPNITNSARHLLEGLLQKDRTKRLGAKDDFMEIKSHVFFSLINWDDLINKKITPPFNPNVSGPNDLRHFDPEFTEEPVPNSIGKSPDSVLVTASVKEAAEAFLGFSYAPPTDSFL
Briefly: Inhibition of GST-tagged human SGK1 using fluorescein labelled ATP-competitive probe by homogeneous time-resolved fluorescence (HTRF) binding assay.

Our source for the IC50 values is ChEMBL document CHEMBL6134912, “Novel Piperidine Substituted Pyrazolopyrimidine Derivatives as SGK1 Inhibitors for Treating Cardiovascular Diseases” (ACS Med Chem Lett, 2025).

pIC50: −log10 of the molar value.

`Cc1nc(O[C@H]2CC[C@@H](N3CCC3)CC2)c(C(=O)N[C@@H]2CCCN(c3nn(C4=CC(=O)OC4)c4ncnc(N)c34)C2)s1` had a pIC50 of 8.30.

`Cc1nc(O[C@H]2CC[C@@H](N(C)C)CC2)c(C(=O)N[C@@H]2CCCN(c3nn(-c4ccc(C(N)=O)c(F)c4)c4ncnc(N)c34)C2)s1` had a pIC50 of 8.40.

Turning to `Cc1nc(O[C@H]2CC[C@@H](NC3CCC3)CC2)c(C(=O)N[C@@H]2CCCN(c3nn(-c4ccc(C(N)=O)c(F)c4)c4ncnc(N)c34)C2)s1`, the pIC50 is 8.40.

As to `Cc1nc(O[C@H]2CC[C@@H](NC(C)CO)CC2)c(C(=O)N[C@@H]2CCCN(c3nn(-c4ccc(C(N)=O)c(F)c4)c4ncnc(N)c34)C2)s1` (stereo partly specified), the pIC50 was 8.30.

As for `CCC(CC)N[C@H]1CC[C@@H](Oc2nc(C)sc2C(=O)N[C@@H]2CCCN(c3nn(-c4ccc(C(N)=O)c(F)c4)c4ncnc(N)c34)C2)CC1`, the pIC50 was 8.52.

For the compound `COc1cc(C(=O)N[C@@H]2CCCN(c3nn(-c4ccc(S(C)(=O)=O)cc4)c4ncnc(N)c34)C2)ccn1`, the pIC50 was 8.30.
